Legend:
Mcl-1 1780 cell line = test: DAPI fluorescence cell-based cytotoxicity (apoptosis) assay, Mcl-1 1780; set-up: species or system mouse; settings: 1 μM, 500 nM, 250 nM, 125 nM; 24 hours; FIG. 2
Method: (§1) The mouse leukemia-derived cell lines Mcl-1-1780 and Bcl-2-1863 (Ryan et al., Proc. Nat. Acad. Sci USA, 107, 12895-12900, which is hereby incorporated by reference in its entirety) were obtained under license from Dana Farber Cancer Institute. Cells were grown in RPMI 1640 medium (GIBCO-BRL) with 2 mM L-glutamine, 4.5 g/L glucose, 1.0 mM sodium pyruvate and 5% fetal bovine serum. Cells were expanded in tissue culture in appropriate media and then sub-cultured into 96-well plates at a seeding density of 20,000 cells per well. After incubation for 24 hours, cells were treated with compounds that are titrated into appropriate medium with FCS. Four concentrations of compound were used: 1 μM, 500 nM, 250 nM, and 125 nM. Assay was run in triplicate for each compound at each concentration and averages were calculated. Cells were treated with compound for 24 hours, then fixed with methanol and stained with the DNA-binding agent DAPI (4′,6-diamidino-2-phenylindole). The cells were then examined by fluorescent microscopy; cells in which caspase 3 and caspase 7 have not been activated will emit at […] when excited by […] light. Caspase-mediated cleavage of nucleosomal proteins causes condensed, pycnotic nuclear morphology that may be measured by cell counting.

Bcl-2 1863 cell line = test: DAPI fluorescence cell-based cytotoxicity (apoptosis) assay, Bcl-2 1863; set-up: species or system mouse; settings: 1 μM, 500 nM, 250 nM, 125 nM; 24 hours; relative to Mcl-1 1780; FIG. 2
Method: as §1

DHL-6 cell line = test: In situ mitochondrial cytochrome c release assay, DHL-6; type: cell-based; settings: semi-permeabilized cells, 1 hour; Bax/Bak-functional cell line; FIG. 3
Text: (§2) The on-target activity of compound 12 was validated. Changes in mitochondrial integrity were observed utilizing anti-cytochrome c conjugated to Alexa488 (BD). When the mitochondria are intact, they retain cytochrome c and have bright, punctate staining with the antibody whereas cells with compromised mitochondrial integrity will lose cytochrome c and will not stain with the antibody. This can be observed by microscopy as well as measured by a shift in fluorescence on the FL1 channel of a flow cytometer.
(§3) The selective response of mitochondria in semi-permeabilized cell lines to the compounds was observed. The assay was adapted from (Campos et al. (2006) Cytometry Part A. 69(A):515-523, which is hereby incorporated by reference in its entirety).
(§4) Suspension cell lines SUDHL6, SUDHL8, and SUDHL10 were grown in RPMI, washed once in 1×PBS and re-suspended at a concentration of 2e6/ml in assay buffer with 0.0025% Digitonin. Assay buffer; 300 mM Trehalose, 10 mM HEPES-KOH pH 7.7, 80 mM KCl, 1 mM EGTA, 1 mM EDTA, 0.1% BSA, 5 mM Succinate. […] Cytochrome c loss was measured by microscopy. At least 100 cells per treatment were counted and scored as positive for cytochrome c loss if they lacked staining. In both methods DMSO was calculated as 0% cytochrome c loss and the Bim response for DHL6 was used to determine 100% cytochrome c loss.

DHL-8 cell line = test: In situ mitochondrial cytochrome c release assay, DHL-8; type: cell-based; settings: semi-permeabilized cells, 1 hour; reduced mitochondrial priming; FIG. 3
Text: as §2, §3, §4

DHL-10 cell line = test: In situ mitochondrial cytochrome c release assay, DHL-10; type: cell-based; settings: semi-permeabilized cells, 1 hour; Bax/Bak-deficient cell line; FIG. 3
Text: as §2, §3, §4

CCN1CCN(C(c2ccc(C(F)(F)F)cc2)c2ccc3cccnc3c2O)CC1 (centres unmarked) [Compound 12, 7-((4-ethylpiperazin-1-yl)(4-(trifluoromethyl)phenyl)methyl)quinolin-8-ol]
Induction of apoptosis (DAPI nuclear morphology) in Mcl-1 1780 (Mcl-1 1780 cell line): induce apoptosis | Induction of apoptosis (DAPI nuclear morphology) in Bcl-2 1863 (Bcl-2 1863 cell line): significantly lesser degree | Cytochrome c release, DHL-6 (DHL-6 cell line): activity | Cytochrome c release, DHL-8 (DHL-8 cell line): reduced activity | Cytochrome c release, DHL-10 (DHL-10 cell line): lack of activity
